Measurements taken from patent US20100105705A1, “PURINYL DERIVATIVES AND THEIR USE AS POTASSIUM CHANNEL MODULATORS” (NeuroSearch A/S, priority 2007, published 2010).

target: T1, hSK3 channels (Homo sapiens, UniProt Q9UGI6); assay: Whole-cell patch-clamp recording of ionic current through SK channels, subtype 3, in HEK293 cells expressing hSK3; assay type: cell-based
T1 construct: expressed in transfected cells; host or cells: HEK293
Protocol: The ionic current through small-conductance Ca^2+-activated K^+ channels (SK channels, subtype 3) is recorded using the whole-cell configuration of the patch-clamp technique in a classic patch-clamp set-up using HEK293 tissue culture cells expressing hSK3 channels as described in e.g. WO 2006/100212.
The SC100 value determined is defined as the Stimulating Concentration required for increasing the baseline current by 100%. The below SC100 values are an indication of the SK3 activating properties of the compounds of the invention.

Question: With `Cn1cnc2c(Nc3ccc(Cl)cc3)nc(-n3ccc(C(F)(F)F)n3)nc21` [Compound 6.1, (4-Chloro-phenyl)-[9-methyl-2-(3-trifluoromethyl-pyrazol-1-yl)-9H-purin-6-yl]-amine] as the molecule, how does the “SC100 (Stimulating Concentration required for increasing the baseline current by 100%)” value read?
Answer: 0.3 µM

Question: For `Cn1cnc2c(Nc3ccc(Cl)cc3)nc(-n3cccn3)nc21` [Compound 6.2, (4-Chloro-phenyl)-(9-methyl-2-pyrazol-1-yl-9H-purin-6-yl)-amine], which “SC100 (Stimulating Concentration required for increasing the baseline current by 100%)” value is on record?
Answer: 0.18 µM

Question: With `Cn1cnc2c(NC3CCCCC3)nc(-n3cccn3)nc21` [Compound 6.3, Cyclohexyl-(9-methyl-2-pyrazol-1-yl-9H-purin-6-yl)-amine] as the molecule, how does the “SC100 (Stimulating Concentration required for increasing the baseline current by 100%)” value read?
Answer: 0.7 µM

Question: Which “SC100 (Stimulating Concentration required for increasing the baseline current by 100%)” value does the source give for `Cc1ccn(-c2nc(Nc3ccc(F)cc3)c3ncn(C)c3n2)n1` [Compound 6.6, (4-Fluoro-phenyl)-[9-methyl-2-(3-methyl-pyrazol-1-yl)-9H-purin-6-yl]-amine] here?
Answer: 0.02 µM

Question: For `Cn1cnc2c(Nc3ccc(Cl)cc3)nc(-n3ccc(N)n3)nc21` [Compound 7.1, [2-(3-Amino-pyrazol-1-yl)-9-methyl-9H-purin-6-yl]-(4-chloro-phenyl)-amine], which “SC100 (Stimulating Concentration required for increasing the baseline current by 100%)” value is on record?
Answer: 0.6 µM

Question: For `Cc1ccn(-c2nc(Nc3ccc(Cl)cc3)c3ncn(C)c3n2)n1` [Compound 9.1, (4-Chloro-phenyl)-[9-methyl-2-(3-methyl-pyrazol-1-yl)-9H-purin-6-yl]-amine], which “SC100 (Stimulating Concentration required for increasing the baseline current by 100%)” value is on record?
Answer: 0.02 µM

Question: With `Cc1ccn(-c2nc(NCCc3ccccc3)c3ncn(C)c3n2)n1` [Compound 9.3, [9-Methyl-2-(3-methyl-pyrazol-1-yl)-9H-purin-6-yl]-phenethyl-amine] as the molecule, how does the “SC100 (Stimulating Concentration required for increasing the baseline current by 100%)” value read?
Answer: 0.6 µM

Question: For `Cc1c2c(nn1-c1nc(Nc3ccc(F)cc3)c3ncn(C)c3n1)CCC2` [Compound 9.5, (4-Fluoro-phenyl)-[9-methyl-2-(3-methyl-5,6-dihydro-4H-cyclopentapyrazol-2-yl)-9H-purin-6-yl]-amine], which “SC100 (Stimulating Concentration required for increasing the baseline current by 100%)” value is on record?
Answer: 0.15 µM

tested on: not given; assay: not given

Question: Which melting point does the source give for `Cn1cnc2c(Nc3ccc(Cl)cc3)nc(-c3ccccn3)nc21` [Compound 13.1, (4-Chloro-phenyl)-(9-methyl-2-pyridin-2-yl-9H-purin-6-yl)-amine] here?
Answer: 185.4 to 190.5 °C
